Laboratory results: ChEMBL document CHEMBL1150834, “Novel halogenated metabolites from the Malaysian Laurencia pannosa” (2001)

How the values were obtained:
Format in all cases: functional
[1] = tested on: Chromobacterium violaceum; experiment: Antibacterial activity against Chromobacterium violaceum after 24 hrs by paper disk method
Vibrio cholerae = experiment: Antibacterial activity against Vibrio cholerae after 24 hrs by paper disk method
Proteus mirabilis = experiment: Antibacterial activity against Proteus mirabilis after 24 hrs by paper disk method

## C#C/C=C\C[C@@H]1O[C@H]2C[C@@H]1O[C@H](CC)[C@@H](Br)C[C@@H]2Cl
[1]
  MIC: 100 µg

## C[C@@H]1[C@]2(CC[C@@](C)(Cl)[C@H](Br)C2)[C@]2(C)CC[C@@]1(C)O2 [PANNOSANE]
[1]
  MIC: 60 µg

## C=C1[C@@H](C)CC[C@@](C)(O)[C@@]12CC[C@@](C)(Cl)[C@H](Br)C2 [PANNOSANOL]
Vibrio cholerae
  MIC: 100 µg
[1]
  MIC: 100 µg
Proteus mirabilis
  MIC: 60 µg
